Read-outs that look alike come from different tables or passages of the source.
Tests used:
[1] = molecular target: T1, α-Gal A (Homo sapiens, UniProt P06280); details: selective and reversible binding; cited from earlier work
T1 sequence (P06280 32-429): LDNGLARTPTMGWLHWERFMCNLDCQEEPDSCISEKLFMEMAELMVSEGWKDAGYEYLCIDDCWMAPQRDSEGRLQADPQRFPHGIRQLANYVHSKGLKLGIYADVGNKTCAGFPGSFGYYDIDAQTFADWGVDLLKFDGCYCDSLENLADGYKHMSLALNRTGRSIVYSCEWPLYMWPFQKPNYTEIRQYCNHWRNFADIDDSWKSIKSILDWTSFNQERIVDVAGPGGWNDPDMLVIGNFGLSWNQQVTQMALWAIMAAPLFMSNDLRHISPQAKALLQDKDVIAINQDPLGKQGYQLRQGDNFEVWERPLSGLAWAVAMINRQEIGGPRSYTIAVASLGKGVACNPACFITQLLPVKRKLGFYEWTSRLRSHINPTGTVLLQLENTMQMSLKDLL

[2] = tested on: Fabry patients; assay: Long-term analysis of 12 patients that completed multiple studies: eGFR; assay type: in vivo, human
Excerpt: In addition to the studies described above, other patients also received migalastat therapy in other studies such as dose-finding studies and/or long-term extension studies. […] 12 patients that completed multiple studies were further analyzed. Linear regression was used to calculate the annualized rate of change in […] from baseline.

[3] = tested on: Fabry patients; assay: ERT-experienced study: renal function (eGFR, mGFR); assay type: in vivo, human; details: for Annualized Change in eGFRCKD-EPI, mean ± SE: ERT-Experienced, Migalastat 0-18 months; for mean annualized rate of change of eGFRCKD-EPI / mean annualized rate of change mGFRiohexol / mean±SE annualized rate of change of eGFRCKD-EPI: ERT-experienced study; for mean annualized rate of change of eGFRCKD-EPI: baseline to 18 months (FIG. 12A); for mean annualized rate of change mGFRiohexol: baseline to 18 months (FIG. 12B); for mean±SE annualized rate of change of eGFRCKD-EPI: baseline to 18 months (FIG. 13)
Procedure: One study was a 24-month trial, including a 6-month double-blind, placebo-controlled period, in 67 ERT-naïve patients. The other study was an active-controlled, 18-month trial in 57 ERT-experienced patients with a 12-month open-label extension (OLE). Both the ERT-naïve and ERT-experienced studies included Fabry patients having an eGFR of ≥30 mL/min/1.73 m^2. […] Annualized change in eGFR using the Modification of Diet in Renal Disease ([…]) was also calculated. […] Although the number of patients with moderate renal impairment included in this analysis is two (compared to three for the ERT-naïve study), the data supports the efficacy of migalastat when administered to patients with some form of renal impairment. A further analysis of data from these studies examined annualized change in […], WBC α-Gal A activity and plasma lyso-Gb3 levels based on renal function at baseline. The results for each renal subgroup are shown in Table 9 below, with the ERT-naïve study subgroups based on […] and the ERT-experienced study subgroups based on mGFRiohexol.

[4] = Single-dose renal impairment PK and safety study in non-Fabry subjects (Example 1); assay type: in vivo, human
Procedure: The eGFR was estimated by the Cockcroft-Gault equation per the FDA Guidance for renal impairment studies.
Volunteers were enrolled into two cohorts stratified for renal function calculated using the Cockcroft-Gault equation for creatinine clearance (CLCR). Subjects were assigned to groups based on an estimated CLCR at screening as calculated using the Cockcroft-Gault equation.
Subjects were grouped according to degree of renal dysfunction: mild (CLCR≥60 and <90 mL/min), moderate (CLCR≥30 and <60 mL/min), or severe (CLCR≥15 and <30 mL/min)

[5] = Plasma and urine PK in healthy volunteers and Fabry patients (single and multiple ascending dose studies); assay type: in vivo, human; details: for Mean percent of the dose recovered in urine: SAD study
[6] = tested on: plasma lyso-GB3; assay: ERT-experienced study: plasma lyso-Gb3; assay type: in vivo, human; details: Migalastat 0-18 months
Procedure: One study was a 24-month trial, including a 6-month double-blind, placebo-controlled period, in 67 ERT-naïve patients. The other study was an active-controlled, 18-month trial in 57 ERT-experienced patients with a 12-month open-label extension (OLE). Both the ERT-naïve and ERT-experienced studies included Fabry patients having an eGFR of ≥30 mL/min/1.73 m^2.
A further analysis of data from these studies examined annualized change in eGFRCKD-EPI, LVMi, WBC α-Gal A activity and plasma lyso-Gb3 levels based on renal function at baseline. The results for each renal subgroup are shown in Table 9 below, with the ERT-naïve study subgroups based on eGFRMDRD and the ERT-experienced study subgroups based on mGFRiohexol.

[7] = mild or moderate renal impairment
[8] = human, plasma, oral, 150 mg, single 150 mg migalastat HCl, non-Fabry, Mild (N = 8)
[9] = human, plasma, oral, 150 mg, single 150 mg migalastat HCl, non-Fabry, Moderate (N = 8)
[10] = human, plasma, oral, 150 mg, single 150 mg migalastat HCl, non-Fabry, Normal (N = 8)
[11] = human, plasma, oral, 150 mg, single 150 mg migalastat HCl, non-Fabry, Severe (N = 8)

## OC[C@H]1NC[C@H](O)[C@@H](O)[C@H]1O [migalastat, (2R,3S,4R,5S)-2-(hydroxymethyl) piperdine-3,4,5-triol]
[1]
  binding to the active site of wild-type α-Gal A and specific mutant forms of α-Gal A: high affinity
[2]; entire duration of migalastat treatment, Patient 1
  Annualized Rate of Change in eGFRCKD-EPI: −0.853 mL/min/1.72 m^2
[2]; entire duration of migalastat treatment, Patient 2
  Annualized Rate of Change in eGFRCKD-EPI: 0.584 mL/min/1.72 m^2
[2]; entire duration of migalastat treatment, Patient 3
  Annualized Rate of Change in eGFRCKD-EPI: −2.838 mL/min/1.72 m^2
[2]; entire duration of migalastat treatment, Patient 4
  Annualized Rate of Change in eGFRCKD-EPI: 0.488 mL/min/1.72 m^2
[2]; entire duration of migalastat treatment, Patient 5
  Annualized Rate of Change in eGFRCKD-EPI: 0.001 mL/min/1.72 m^2
[2]; entire duration of migalastat treatment, Patient 6
  Annualized Rate of Change in eGFRCKD-EPI: −2.179 mL/min/1.72 m^2
[2]; entire duration of migalastat treatment, Patient 7
  Annualized Rate of Change in eGFRCKD-EPI: −0.704 mL/min/1.72 m^2
[2]; entire duration of migalastat treatment, Patient 8
  Annualized Rate of Change in eGFRCKD-EPI: −1.09 mL/min/1.72 m^2
[2]; entire duration of migalastat treatment, Patient 9
  Annualized Rate of Change in eGFRCKD-EPI: −0.443 mL/min/1.72 m^2
[2]; entire duration of migalastat treatment, Patient 10
  Annualized Rate of Change in eGFRCKD-EPI: 0.219 mL/min/1.72 m^2
[2]; entire duration of migalastat treatment, Patient 11
  Annualized Rate of Change in eGFRCKD-EPI: −0.342 mL/min/1.72 m^2
[2]; entire duration of migalastat treatment, Patient 12
  Annualized Rate of Change in eGFRCKD-EPI: −0.871 mL/min/1.72 m^2
[2]; entire migalastat treatment period (mean exposure 8.2 years), Mean of 12 patients
  Annualized Rate of Change in eGFRCKD-EPI: −0.67 mL/min/1.72 m^2
[3]; renal subgroup 30 to < 60
  Annualized Change in eGFRCKD-EPI, mean ± SE: −4.2 ± 2.7 mL/min/1.73 m^2
[3]; renal subgroup ≥60
  Annualized Change in eGFRCKD-EPI, mean ± SE: −0.4 ± 0.8 mL/min/1.73 m^2
[3]; [7]
  mean annualized rate of change of eGFRCKD-EPI: −3.33 mL/min/1.73 m^2/year
  mean annualized rate of change mGFRiohexol: −3.51 mL/min/1.73 m^2/year
[3]; normal renal function
  mean annualized rate of change of eGFRCKD-EPI: −0.4 mL/min/1.73 m^2/year
  mean annualized rate of change mGFRiohexol: −4.35 mL/min/1.73 m^2/year
  mean±SE annualized rate of change of eGFRCKD-EPI: −2.0±0.57 mL/min/1.73 m^2/year
[3]; mild renal impairment
  mean±SE annualized rate of change of eGFRCKD-EPI: −0.2±1.25 mL/min/1.73 m^2/year
[3]; moderate renal impairment
  mean±SE annualized rate of change of eGFRCKD-EPI: −4.5±2.68 mL/min/1.73 m^2/year
[4]; human, plasma, oral, 150 mg, Comparison to Example 1 Moderate Impairment (migalastat concentration), non-Fabry, moderate impairment, 3 Hrs Post
  concentration at 3 h: 1870 ng/mL
[4]; human, plasma, oral, 150 mg, Comparison to Example 1 Moderate Impairment (migalastat concentration), non-Fabry, moderate impairment, 24 Hrs Post
  concentration at 24 h: 239 ng/mL
[4]; human, plasma, oral, 150 mg, Comparison to Example 1 Moderate Impairment (migalastat concentration), non-Fabry, moderate impairment, 48 Hrs Post
  concentration at 48 h: 64.5 ng/mL
[4]; human, plasma, oral, 150 mg, Comparison to Example 1 Severe Impairment (migalastat concentration), non-Fabry, severe impairment, 2 h
  concentration at 2 h: 1550 ng/mL
[4]; human, plasma, oral, 150 mg, Comparison to Example 1 Severe Impairment (migalastat concentration), non-Fabry, severe impairment, 24 h
  concentration at 24 h: 770 ng/mL
[4]; human, plasma, oral, 150 mg, Comparison to Example 1 Severe Impairment (migalastat concentration), non-Fabry, severe impairment, 48 h
  concentration at 48 h: 334 ng/mL
[4]; [8]
  AUC(0-inf): 14500 ng·h/mL
  AUC(0-t): 14400 ng·h/mL
  Cmax: 2190 ng/mL
[4]; human, plasma, oral, 150 mg, single 150 mg migalastat HCl, non-Fabry, Mild (N = 8), read-out: C48
  concentration at 48 h: 9.34 ng/mL
[4]; human, plasma, oral, 150 mg, single 150 mg migalastat HCl, non-Fabry, Mild (N = 8), read-out: t1/2 (converted)
  half-life: 7.66 h
[4]; [9]
  AUC(0-inf): 22500 ng·h/mL
  AUC(0-t): 22100 ng·h/mL
  Cmax: 1870 ng/mL
  Tmax: 3 h
[4]; human, plasma, oral, 150 mg, single 150 mg migalastat HCl, non-Fabry, Moderate (N = 8), read-out: C48
  concentration at 48 h: 64.5 ng/mL
[4]; human, plasma, oral, 150 mg, single 150 mg migalastat HCl, non-Fabry, Moderate (N = 8), read-out: t1/2 (converted)
  half-life: 22.2 h
[4]; [10]
  AUC(0-inf): 12400 ng·h/mL
  AUC(0-t): 12300 ng·h/mL
  Cmax: 2100 ng/mL
[4]; human, plasma, oral, 150 mg, single 150 mg migalastat HCl, non-Fabry, Normal (N = 8), read-out: C48
  concentration at 48 h: 5.7 ng/mL
[4]; human, plasma, oral, 150 mg, single 150 mg migalastat HCl, non-Fabry, Normal (N = 8), read-out: t1/2 (converted)
  half-life: 6.42 h
[4]; [11]
  AUC(0-inf): 56200 ng·h/mL
  AUC(0-t): 53100 ng·h/mL
  Cmax: 2080 ng/mL
  Tmax: 4.27 h
[4]; human, plasma, oral, 150 mg, single 150 mg migalastat HCl, non-Fabry, Severe (N = 8), read-out: C48
  concentration at 48 h: 334 ng/mL
[4]; human, plasma, oral, 150 mg, single 150 mg migalastat HCl, non-Fabry, Severe (N = 8), read-out: t1/2 (converted)
  half-life: 32.3 h
[4]; human, plasma, po, 150 mg, single oral 150 mg migalastat HCl, mild renal impairment, read-out: t1/2 in plasma, arithmetic mean [min, max] (converted)
  half-life: 7.7 h
[4]; human, plasma, po, 150 mg, single oral 150 mg migalastat HCl, moderate renal impairment, read-out: t1/2 in plasma, arithmetic mean [min, max] (converted)
  half-life: 22.2 h
[4]; human, plasma, po, 150 mg, single oral 150 mg migalastat HCl, normal renal function, read-out: t1/2 in plasma, arithmetic mean [min, max] (converted)
  half-life: 6.4 h
[4]; human, plasma, po, 150 mg, single oral 150 mg migalastat HCl, severe renal impairment, read-out: t1/2 in plasma, arithmetic mean [min, max] (converted)
  half-life: 32.3 h
[4]; non-Fabry, moderate impairment, Pre-dose (0 h), same value as 48 h
  Plasma migalastat concentration: 64.5 ng/mL
[4]; single 150 mg migalastat HCl, non-Fabry, Mild (N = 8)
  CL/F: 10.3 L/h
[4]; single 150 mg migalastat HCl, non-Fabry, Moderate (N = 8)
  CL/F: 6.68 L/h
[4]; single 150 mg migalastat HCl, non-Fabry, Normal (N = 8)
  CL/F: 12.1 L/h
[4]; single 150 mg migalastat HCl, non-Fabry, Severe (N = 8)
  CL/F: 2.67 L/h
[4]; single 150 mg migalastat HCl, all renal function groups
  Incidence of adverse events: comparable across all renal function groups
[4]; single oral 150 mg migalastat HCl, mild renal impairment
  increase of mean plasma migalastat AUC0-∞ compared to healthy control subjects: 1.2 fold
[4]; single oral 150 mg migalastat HCl, moderate renal impairment
  increase of mean plasma migalastat AUC0-∞ compared to healthy control subjects: 1.8 fold
[4]; single oral 150 mg migalastat HCl, severe renal impairment
  increase of mean plasma migalastat AUC0-∞ compared to healthy control subjects: 4.5 fold
[5]; 25 mg
  Mean percent of the dose recovered in urine: 32.2%
[5]; 75 mg
  Mean percent of the dose recovered in urine: 43.0%
[5]; 225 mg
  Mean percent of the dose recovered in urine: 49.3%
[5]; 675 mg
  Mean percent of the dose recovered in urine: 48.5%
[5]; human, in vivo
  excretion: primarily excreted unchanged in urine
[5]; human, plasma, single-dose studies, oral, read-out: mean elimination half-lives (t1/2)
  half-life: 3.04 to 4.79 h
[5]; multiple ascending dose studies
  accumulation of plasma migalastat: only minimal accumulation
[5]; oral doses from 75 mg to 1250 mg
  increase of mean Cmax and AUC0-t with dose: dose-proportional manner
[5]; single-dose studies, oral, range 1 to 6 hrs
  time to maximum concentrations: approximately 3 hours
[6]; renal subgroup 30 to < 60
  Plasma lyso-Gb3, change from baseline, mean: +0.5 nmol/L
[6]; renal subgroup ≥60
  Plasma lyso-Gb3, change from baseline, mean: 1.9 nmol/L
